System: HepG2 cells
Test: Lipid droplets formation in HepG2 cells, formula of fenugreek extract (oil red-O / MTS index)
Format: cell-based
Conditions: lipid droplets induced group = 100%; treated 16 hours, then lipid droplets induced reagent 16 hours
Protocol: (1) HepG2 cells were seeded at 2.5×10^4 cells/well and incubated for 24 hours. (2) The incubated cells were divided into the following groups: Control group (CG) was added with 1% DMSO to treat the HepG2 cells for 16 hours, and then treated with cell culture medium for 16 hours. Lipid droplets induced group (LDIG) was added with 1% DMSO to treat the HepG2 cells for 16 hours, and then treated with 500 nM lipid droplets induced reagent for 16 hours. […] In addition, in a preferred embodiment, Vitamin E, SiO2, MAG and Fibersol-2 ® may be additionally added as desired. Each experiment group was respectively added to treat the HepG2 cells for 16 hours, and then treated with lipid droplets induced reagent for 16 hours. [table] (3) The above groups were examined by MTS assay and oil red-O stain, and the oil red OD value/MTS OD value was used as the index of lipid droplets.

NCCS(=O)(=O)O [experiment group 7, taurine]
percentage of the lipid droplet formation: 72.4%

Reference: US20200108112A1, “METHOD FOR PREPARING FENUGREEK EXTRACT AND PHARMACEUTICAL COMPOSITION COMPRISING FENUGREEK EXTRACT” (PRINCE PHARMACEUTICAL CO., LTD., priority 2017, published 2020)
